# Entries after “also recorded” stand apart in the source; their conditions may differ.
# Experiments:
# [1] = system: EKP induced seizures in zebrafish larvae; assay: Zebrafish drug resistant epilepsy model: ethyl ketopentenoate (EKP), locomotor tracking; type: in vivo; settings: for activity after EKP exposure (locomotor activity relative to EKP only): 1 μM compound, 300 μM EKP, 30 min recording; for effect on EKP induced seizures (locomotor activity, actinteg units): 7 dpf larvae, compound at MTC (CQ 3 μM, CH 3.125 μM, PBT-1033 6 μM) 2 h before 300 μM EKP
# Description: Larvae (7 dpf) in 100 μl VHC were arrayed individually in a 96-well plate (tissue culture plate, at bottom, Falcon, USA) and kept in the light at 28° C. Two-hours before tracking compound (clioquinol (CQ), chloroxine (CH), PBT-1033) and/or inhibitor (disulfiram (DS), CBR) was added at their MTC to the larvae and afterwards the 96-well plates were placed in darkness at 28° C. for 2 hours. Just prior to tracking 100 µl of VHC or EKP stock solution was added to each well to obtain a EKP concentration of 300 μM. The plates were placed in an automated video tracking device (ZebraBox™ apparatus; Viewpoint, Lyon, France) and the locomotor behavior of the larvae was monitored for 40 min in the dark at 28° C. Locomotor activity was quantified using ZebraLab™ software (Viewpoint, Lyon, France) and expressed in “actinteg” units per 5-min interval. For each larvae, 30 min of tracking data after the effect of EKP was initiated was used. The actinteg value is defined as the sum of all image pixel changes detected during the time window.
# Locomotor activity was quantified using ZebraLab™ software (Viewpoint, Lyon, France) and expressed in mean “actinteg” units per 5-min+/−SEM during a 30 min recording interval relative to EKP only. Statistical analysis: one-way ANOVA with Dunnett's multiple comparison test. A statistical difference is indicated by: ****p<0.0001. For each condition n=10 larvae were used and the experiment was performed two times (n total=20 per condition).
# human Phgdh = molecular target: T1, human Phgdh (Homo sapiens, UniProt O43175); assay: Phgdh activity assay (colorimetric kit, NADH at 450 nm); type: biochemical; settings: for Phgdh activation (in words): 25 μM compound
# T1 construct: purchased BPS bioscience 71079
# T1 sequence (O43175 1-533): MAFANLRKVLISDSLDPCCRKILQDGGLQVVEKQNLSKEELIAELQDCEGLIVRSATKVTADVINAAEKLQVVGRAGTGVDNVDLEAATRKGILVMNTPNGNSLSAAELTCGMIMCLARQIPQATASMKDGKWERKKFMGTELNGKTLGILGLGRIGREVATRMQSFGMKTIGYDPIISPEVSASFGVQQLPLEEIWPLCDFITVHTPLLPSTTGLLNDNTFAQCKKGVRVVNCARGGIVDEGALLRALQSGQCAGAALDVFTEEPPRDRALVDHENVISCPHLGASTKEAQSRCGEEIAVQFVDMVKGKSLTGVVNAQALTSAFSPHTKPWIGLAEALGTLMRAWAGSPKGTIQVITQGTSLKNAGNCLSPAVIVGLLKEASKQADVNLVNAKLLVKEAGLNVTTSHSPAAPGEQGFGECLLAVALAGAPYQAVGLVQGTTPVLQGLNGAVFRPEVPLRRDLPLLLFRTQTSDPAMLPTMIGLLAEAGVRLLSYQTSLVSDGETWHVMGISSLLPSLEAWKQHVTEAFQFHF
# Description: Phgdh enzyme activity upon drug treatment was tested using human Phgdh (BPS bioscience, 71079) and a specific colorimetric Phgdh activity kit (Biovision, K569). The Phgdh inhibitor Disulfiram [Spillier et al. (2019) Sci Rep. 9, 4737], served as […].
# Briefly, Human Phgdh enzyme was diluted in assay buffer at a concentration of 0.38 mg/mL. Next, 5 μl of this Phgdh enzyme solution and 5 μL of the compounds in 5% DMSO and assay buffer was added (to wells of flat bottom 96-well plate). Subsequently, 40 μl Phgdh assay buffer (Biovision) and 50 μl Phgdh reaction mix (prepared as described in the protocol of the Phgdh assay kit K569, Biovision) was added. The final amount of enzyme per reaction was 0.35 μM. Afterwards, absorbance at 450 nm, indicative for the amount of NADH generated, was measured over time. NADH is one of the end products of the reaction. In between measurements, the plate was incubated at 37° C., protected from light.
# Scn1Lab mutant larvae = assay: Zebrafish model of Dravet syndrome, locomotor behavioural assay; type: in vivo; settings: 6 dpf larvae, MTC concentration in 0.1% DMSO, 2 h incubation, normalized to VHC-treated mutants
# Description: 6 dpf Scn1Lab mutant larvae (selected by their darker appearance, lack of a swim bladder and slight curvature of the body on 6 dpf) and WT larvae were arrayed in a 96-well plate (one larva per well) and treated with 100 μl VHC (0.1% DMSO) or compound (MTC concentration in 0.1% DMSO). After incubation at 28° C. on a 14/10 h light/dark cycle for 2 h, the plates were immediately placed in an enclosed tracking device (ZebraBox Viewpoint, France) and chamber habituation for 30 min. The locomotor activity of the larvae were evaluated during 10 min under dark conditions and quantified by the lardist parameter (total distance in large movements) and plotted in cm (ZebraLab™ software, Viewpoint, Lyon, France). Data was collected from 3-4 larvae per treatment condition. The locomotor data were analysed by normalizing the locomotor activity of treated larvae against VHC-treated Scn1Lab mutant larvae.
# [2] = cited from earlier work
# [3] = system: 6-Hz (44 mA) psychomotor seizures in NMRI mice; assay: Mouse 6-Hz (44 mA) psychomotor seizure model; type: in vivo; settings: i.p. injection 60 min before corneal stimulation
# Description: Male NMRI mice (weight 25-30 g) were acquired from Charles River Laboratories (France) and housed in polyacrylic cages under a 14/10-hour light/dark cycle at 21° C. The animals were fed a pellet diet and water ad libitum, and were allowed to acclimate for 1 week before experimental procedures were conducted. Prior to the experiment, mice were isolated in polyacrylic cages with a pellet diet and water ad libitum for habituation overnight in the experimental room, to minimize stress. The antiseizure activity of compounds was investigated in the mouse 6-Hz (44 mA) psychomotor seizure model as described before [Copmans et al (2018) ACS Chem Neurosci. 9, 1652-1662.]. In brief, 500 μl (injection volume was adjusted to the individual weight) of VHC (0.5% sodiumcarboxymethylcellulose (NaCMC)/Tween80 in 0.9% NaCl) or treatment (valproate or clioquinol dissolved in VHC) was i.p. injected in NMRI mice and after 60 min psychomotor seizures were induced by corneal electrical stimulation (6 Hz, 0.2 ms rectangular pulse width, 3 s duration, 44 mA) using an ECT Unit 5780 (Ugo Basile, Comerio, Italy). Seizure durations were measured during the experiment by experienced researchers, familiar with the different seizure behaviours. In addition, seizure durations were determined by blinded video analysis to confirm or correct the initial observations. Data are expressed as mean±SD.
# [4] = cited from earlier work; remark: listed apart in the source
# [5] = system: cAMP-transporting ABC pumps; settings: possible targets ABCC4 and ABCC11; cited from earlier work
# [6] = cited from earlier work; remark: listed apart in the source
smiles,measurement,setting,value
O=C(O)c1cc(O)c2ccc(Cl)cc2n1 [7-chloro-kynurenic acid],activity after EKP exposure (locomotor activity relative to EKP only),[1],not Active
same,Phgdh activation (in words),human Phgdh,could not activate Phgdh; also recorded: no induced activation of PHGDH
O=C(Oc1cccc2cccnc12)c1ccccc1 [benzoxyquine],Phgdh activation (in words),human Phgdh,could not activate Phgdh
Oc1c(Cl)cc(Cl)c2cccnc12 [chloroxine],"effect on EKP induced seizures (locomotor activity, actinteg units)",[1],significantly reduced EKP induced seizures
same,reduction of epileptiform locomotor activity of Scn1Lab mutant group,Scn1Lab mutant larvae,> 60%
Oc1c(I)cc(Cl)c2cccnc12 [clioquinol],activity after EKP exposure (locomotor activity relative to EKP only),[1],superior activity
same,"effect on EKP induced seizures (locomotor activity, actinteg units)",[1],significantly reduced EKP induced seizures
same,dose that did not produce toxicity in animals,"[2]; animals, over 30 days, in all but one study",100 mg/(kg day)
same,dose with toxicity observed in a week,"[2]; dogs, in a week",400 mg/(kg day)
same,dose with neurological toxicity in dogs,"[2]; dogs, treated for over a month",exceeding 200 mg/(kg day)
same,seizure duration,[3],trend towards reduced seizure duration
same,dose/concentration ratio in humans,[4]; doses of 250 or 500 mg,0.64-1.4
same,concentrations of free clioquinol in humans relative to hamsters (mean),[4]; in vivo,33 times
same,effect on cAMP-transporting ABC pumps,[5],inhibits
same,dose with no apparent adverse effects,"[6]; Alzheimer clinical trial, for weeks (10 mg/kg/day)",750 mg/day
same,dose with dose-limiting neurotoxicity and abdominal pain,[6]; humans (42.5 mg/kg/day),3200 mg/day
same,dose received by patients without toxicity,"[6]; humans, per day (~50 mg/(kg day))",3.5 g
same,effect on the oxido-reduction reaction toward NADH generation,"human Phgdh; compound itself, data not shown",does not affect
"Oc1ccc(Cl)c2cccnc12 [cloxyquin, 5-Chloro-8-quinolinol]",Phgdh activation (in words),human Phgdh,activity comparable to clioquinol
